Values quoted from earlier work in patent US8653026B2, “Treatment of type 2 diabetes with FTY720” (Diapin Therapeutics LLC, priority 2011, dated 2014).

Assays:
Settings in all cases: literature reference (25); cited from earlier work
S1P3 = S1P3 (Homo sapiens, UniProt Q99500)
S1P1 = S1P1 (Homo sapiens, UniProt P21453)
S1P5 = S1P5 (Homo sapiens, UniProt Q9H228)
S1P2 = S1P2 (Homo sapiens, UniProt O95136)
S1P4 = molecular target: T1, S1P4 (Homo sapiens, UniProt O95977)
T1 sequence (O95977 1-384): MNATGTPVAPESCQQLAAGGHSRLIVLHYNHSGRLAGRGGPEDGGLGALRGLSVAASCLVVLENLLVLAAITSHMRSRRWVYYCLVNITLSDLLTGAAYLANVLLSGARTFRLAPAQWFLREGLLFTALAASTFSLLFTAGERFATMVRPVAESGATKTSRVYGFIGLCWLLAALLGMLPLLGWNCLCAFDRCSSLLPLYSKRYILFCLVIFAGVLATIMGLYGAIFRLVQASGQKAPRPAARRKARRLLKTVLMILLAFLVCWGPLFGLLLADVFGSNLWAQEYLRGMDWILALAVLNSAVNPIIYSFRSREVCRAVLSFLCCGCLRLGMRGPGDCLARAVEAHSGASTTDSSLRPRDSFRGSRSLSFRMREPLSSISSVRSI

Chain of S1P1 (P21453 whole entry, species assumed): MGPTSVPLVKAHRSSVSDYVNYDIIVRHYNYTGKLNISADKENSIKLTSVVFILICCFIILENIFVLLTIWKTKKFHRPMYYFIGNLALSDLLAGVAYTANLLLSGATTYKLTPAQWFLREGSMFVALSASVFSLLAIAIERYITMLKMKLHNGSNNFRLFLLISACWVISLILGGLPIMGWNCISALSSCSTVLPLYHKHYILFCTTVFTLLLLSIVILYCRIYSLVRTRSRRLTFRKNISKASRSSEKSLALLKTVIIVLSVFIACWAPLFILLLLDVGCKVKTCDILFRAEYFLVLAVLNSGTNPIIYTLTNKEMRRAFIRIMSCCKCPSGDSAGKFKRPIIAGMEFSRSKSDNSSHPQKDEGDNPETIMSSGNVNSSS
Chain of S1P5 (Q9H228 whole entry, species assumed): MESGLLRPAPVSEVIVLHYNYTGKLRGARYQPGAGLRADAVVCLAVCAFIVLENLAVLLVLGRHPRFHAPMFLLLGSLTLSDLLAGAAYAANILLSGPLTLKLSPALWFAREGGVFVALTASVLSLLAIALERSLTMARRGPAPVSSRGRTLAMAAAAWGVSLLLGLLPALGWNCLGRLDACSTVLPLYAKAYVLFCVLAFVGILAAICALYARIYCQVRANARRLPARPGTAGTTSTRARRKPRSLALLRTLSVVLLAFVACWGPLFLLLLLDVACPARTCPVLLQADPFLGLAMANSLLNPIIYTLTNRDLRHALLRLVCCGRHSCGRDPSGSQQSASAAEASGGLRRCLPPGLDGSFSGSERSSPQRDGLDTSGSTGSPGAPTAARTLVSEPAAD
Chain of S1P3 (Q99500 whole entry, species assumed): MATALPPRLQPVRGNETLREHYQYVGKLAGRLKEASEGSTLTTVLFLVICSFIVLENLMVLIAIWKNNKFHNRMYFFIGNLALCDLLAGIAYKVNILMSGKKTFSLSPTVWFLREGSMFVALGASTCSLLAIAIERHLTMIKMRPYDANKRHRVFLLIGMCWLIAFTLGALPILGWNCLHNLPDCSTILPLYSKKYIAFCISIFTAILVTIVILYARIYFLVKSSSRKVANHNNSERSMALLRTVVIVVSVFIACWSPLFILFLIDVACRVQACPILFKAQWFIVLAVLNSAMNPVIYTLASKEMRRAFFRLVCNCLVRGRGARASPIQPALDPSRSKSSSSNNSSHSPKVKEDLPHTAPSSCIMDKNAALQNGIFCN
Chain of S1P2 (O95136 whole entry, species assumed): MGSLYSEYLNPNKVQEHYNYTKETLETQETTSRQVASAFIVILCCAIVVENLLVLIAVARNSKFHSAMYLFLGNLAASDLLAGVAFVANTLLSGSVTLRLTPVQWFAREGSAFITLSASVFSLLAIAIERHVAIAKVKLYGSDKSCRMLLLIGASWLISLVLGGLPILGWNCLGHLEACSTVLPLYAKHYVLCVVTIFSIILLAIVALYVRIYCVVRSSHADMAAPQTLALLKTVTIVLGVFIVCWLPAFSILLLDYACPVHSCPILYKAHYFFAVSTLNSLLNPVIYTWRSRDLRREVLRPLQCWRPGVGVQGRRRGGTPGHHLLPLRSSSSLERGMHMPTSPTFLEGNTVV

SMILES: CCCCCCCCc1ccc(CCC(N)(CO)COP(=O)(O)O)cc1 (centres unmarked) [FTY720-P, 2-amino-2-(hydroxymethyl)-4-(4-octylphenyl)butyl dihydrogen phosphate]
- binding to S1P3 (S1P3): binds
- binding to S1P1 (S1P1): binds
- binding to S1P5 (S1P5): binds
- binding to S1P2 (S1P2): but not S1P2
- binding to S1P4 (S1P4): binds
